According to the NIST ThermoML archive (doi:10.1021/acs.jced.8b00201):

Assay: xn = mol fraction of the nth substance listed
Conditions: 100 kPa, Liquid; for viscosity: Concentric cylinders viscometry; for mass density: Vibrating tube method

O=C1CCCCC1 [cyclohexanone] + CCCCCCO
Conditions	mass density [kg/m3]	viscosity [mPa·s]
293.15 K, x1 = 0.0818	827.6	4.66
293.15 K, x1 = 0.1594	836.2	4.06
293.15 K, x1 = 0.2401	845.5	3.55
293.15 K, x1 = 0.3467	858.2	2.97
293.15 K, x1 = 0.4439	870.2	2.55
293.15 K, x1 = 0.564	885.7	2.18
293.15 K, x1 = 0.6501	897.3	2.02
293.15 K, x1 = 0.7381	909.5	1.97
293.15 K, x1 = 0.8512	925.9	2
293.15 K, x1 = 0.9426	939.8	2.13
293.15 K, x1 = 1	948.8	2.3
298.15 K, x1 = 0.0818	823.8	4.03
298.15 K, x1 = 0.1594	832.2	3.54
298.15 K, x1 = 0.2401	841.3	3.12
298.15 K, x1 = 0.3467	853.7	2.63
298.15 K, x1 = 0.4439	865.5	2.3
298.15 K, x1 = 0.564	880.7	1.98
298.15 K, x1 = 0.6501	892.1	1.86
298.15 K, x1 = 0.7381	904.2	1.81
298.15 K, x1 = 0.8512	920.5	1.84
298.15 K, x1 = 0.9426	934.7	1.95
298.15 K, x1 = 1	943.1	2.09
303.15 K, x1 = 0.0818	820	3.47
303.15 K, x1 = 0.1594	828.3	3.07
303.15 K, x1 = 0.2401	837.2	2.72
303.15 K, x1 = 0.3467	849.5	2.33
303.15 K, x1 = 0.4439	861.1	2.05
303.15 K, x1 = 0.564	876.2	1.8
303.15 K, x1 = 0.6501	887.5	1.71
303.15 K, x1 = 0.7381	899.5	1.67
303.15 K, x1 = 0.8512	915.6	1.7
303.15 K, x1 = 0.9426	929.8	1.79
303.15 K, x1 = 1	938.2	1.91
308.15 K, x1 = 0.0818	816.3	3.04
308.15 K, x1 = 0.1594	824.4	2.71
308.15 K, x1 = 0.2401	833.2	2.41
308.15 K, x1 = 0.3467	845.3	2.09
308.15 K, x1 = 0.4439	856.8	1.87
308.15 K, x1 = 0.564	871.8	1.67
308.15 K, x1 = 0.6501	883	1.59
308.15 K, x1 = 0.7381	894.9	1.55
308.15 K, x1 = 0.8512	911	1.58
308.15 K, x1 = 0.9426	925.1	1.64
308.15 K, x1 = 1	933.5	1.75
313.15 K, x1 = 0.0818	812.4	2.66
313.15 K, x1 = 0.1594	820.5	2.39
313.15 K, x1 = 0.2401	829.2	2.14
313.15 K, x1 = 0.3467	841.1	1.86
313.15 K, x1 = 0.4439	852.5	1.68
313.15 K, x1 = 0.564	867.3	1.51
313.15 K, x1 = 0.6501	878.5	1.45
313.15 K, x1 = 0.7381	890.3	1.42
313.15 K, x1 = 0.8512	906.3	1.45
313.15 K, x1 = 0.9426	920.4	1.51
313.15 K, x1 = 1	928.8	1.6
318.15 K, x1 = 0.0818	808.7	2.33
318.15 K, x1 = 0.1594	816.7	2.1
318.15 K, x1 = 0.2401	825.3	1.9
318.15 K, x1 = 0.3467	837.1	1.68
318.15 K, x1 = 0.4439	848.4	1.52
318.15 K, x1 = 0.564	863.1	1.38
318.15 K, x1 = 0.6501	874.2	1.33
318.15 K, x1 = 0.7381	886	1.31
318.15 K, x1 = 0.8512	901.9	1.33
318.15 K, x1 = 0.9426	916	1.39
318.15 K, x1 = 1	924.4	1.46
323.15 K, x1 = 0.0818	804.9	2.05
323.15 K, x1 = 0.1594	812.8	1.86
323.15 K, x1 = 0.2401	821.4	1.7
323.15 K, x1 = 0.3467	833.2	1.51
323.15 K, x1 = 0.4439	844.5	1.39
323.15 K, x1 = 0.564	859.2	1.28
323.15 K, x1 = 0.6501	870.3	1.23
323.15 K, x1 = 0.7381	882.2	1.22
323.15 K, x1 = 0.8512	898.1	1.23
323.15 K, x1 = 0.9426	912.2	1.27
323.15 K, x1 = 1	920.7	1.34
